Tests used:
[1] = test system: HL-60; test: The compound was tested for its inhibitory activity against HL-60 human leukemia cell line; format: functional, cell-based
[2] = target: T1, M-phase inducer phosphatase 2 (Homo sapiens, UniProt P30305); test: The compound was tested for its inhibitory activity against Cell division cycle 25B
T1 sequence (P30305 whole entry): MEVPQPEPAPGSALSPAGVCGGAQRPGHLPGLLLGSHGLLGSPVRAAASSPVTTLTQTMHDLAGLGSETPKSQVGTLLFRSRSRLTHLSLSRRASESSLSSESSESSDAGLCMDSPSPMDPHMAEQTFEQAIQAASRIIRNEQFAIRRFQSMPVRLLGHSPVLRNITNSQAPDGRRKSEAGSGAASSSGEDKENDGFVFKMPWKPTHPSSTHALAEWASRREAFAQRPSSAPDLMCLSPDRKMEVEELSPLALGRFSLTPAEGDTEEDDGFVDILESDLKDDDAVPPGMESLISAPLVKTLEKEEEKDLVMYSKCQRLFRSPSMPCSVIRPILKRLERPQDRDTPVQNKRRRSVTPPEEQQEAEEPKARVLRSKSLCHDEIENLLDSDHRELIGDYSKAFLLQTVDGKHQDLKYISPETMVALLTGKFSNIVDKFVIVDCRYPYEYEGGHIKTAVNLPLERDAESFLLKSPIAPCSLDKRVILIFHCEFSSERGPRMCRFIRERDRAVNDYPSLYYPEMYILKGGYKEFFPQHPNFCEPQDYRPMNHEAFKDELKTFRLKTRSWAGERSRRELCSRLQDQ

[3] = test system: SBC-5; test: The compound was tested for its inhibitory activity against SBC-5 human lung cancer cell line; format: functional, cell-based
[4] = target: T2, M-phase inducer phosphatase 1 (Homo sapiens, UniProt P30304); test: The compound was tested for its inhibitory activity against Cell division cycle 25A
T2 sequence (P30304 whole entry): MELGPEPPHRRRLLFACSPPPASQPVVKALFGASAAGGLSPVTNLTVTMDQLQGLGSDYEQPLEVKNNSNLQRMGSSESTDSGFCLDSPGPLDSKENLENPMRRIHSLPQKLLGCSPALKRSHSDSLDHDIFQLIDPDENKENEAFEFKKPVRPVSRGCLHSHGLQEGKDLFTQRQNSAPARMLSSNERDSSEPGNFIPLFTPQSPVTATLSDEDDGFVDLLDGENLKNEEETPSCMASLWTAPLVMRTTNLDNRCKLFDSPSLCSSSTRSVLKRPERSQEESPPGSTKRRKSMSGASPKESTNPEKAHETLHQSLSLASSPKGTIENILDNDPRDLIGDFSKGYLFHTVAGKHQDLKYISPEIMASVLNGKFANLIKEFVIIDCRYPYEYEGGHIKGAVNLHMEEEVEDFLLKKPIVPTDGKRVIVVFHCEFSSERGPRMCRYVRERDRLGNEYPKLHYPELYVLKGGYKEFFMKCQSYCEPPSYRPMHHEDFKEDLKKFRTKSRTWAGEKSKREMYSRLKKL

An IC50 [1] of 1 µM, an IC50 [2] of 18 µM and an IC50 [3] of 1.3 µM were found for `C=C(C)CCC[C@]1(C)CCC[C@@H]2C1=CC[C@@H](C)[C@]2(C)C[C@H](O)C1=CC(=O)OC1O` (some centres undefined) in this work.
An IC50 [2] of 27 µM, an IC50 [3] of 4.4 µM and an IC50 [4] of 15 µM were found for `C=C(C)CCC[C@]1(C)CCC[C@@H]2C1=CC[C@@H](C)[C@@H]2C[C@H](O)C1=CC(=O)OC1O` (some centres undefined) in this work.
An IC50 [1] of 7.1 µM, an IC50 [2] of 87 µM and an IC50 [3] of 5.4 µM were found for `C=C(C)CCC[C@]1(C)CCC[C@@H]2C1=CC[C@@H](C)[C@@]2(C)C[C@@H](O)C1=CC(=O)O[C@H]1O` [DYSIDIOLIDE] in this work.
An IC50 [2] of 19 µM and an IC50 [3] of 16 µM were found for `C=C(C)CCC[C@@]1(C)CCC[C@H]2C1=CC[C@H](C)[C@]2(C)C[C@H](O)C1=CC(=O)O[C@@H]1O` (stereo in doubt) in this work.
An IC50 [2] greater than 300 µM, an IC50 [3] of 12 µM and an IC50 [4] greater than 300 µM were found for `CC1(CC(O)C2=CC(=O)OC2O)CCCCC1` (centres undefined) in this work.

Source: ChEMBL document CHEMBL1132817 (Bioorg Med Chem Lett, 2000)
